Molecular target: prostate-specific membrane antigen (PSMA) (Homo sapiens, UniProt Q04609)
Experiment: HPLC-based inhibition assay of purified PSMA with PABGγG substrate
Format: biochemical

Chain of prostate-specific membrane antigen (PSMA) (Q04609 whole entry): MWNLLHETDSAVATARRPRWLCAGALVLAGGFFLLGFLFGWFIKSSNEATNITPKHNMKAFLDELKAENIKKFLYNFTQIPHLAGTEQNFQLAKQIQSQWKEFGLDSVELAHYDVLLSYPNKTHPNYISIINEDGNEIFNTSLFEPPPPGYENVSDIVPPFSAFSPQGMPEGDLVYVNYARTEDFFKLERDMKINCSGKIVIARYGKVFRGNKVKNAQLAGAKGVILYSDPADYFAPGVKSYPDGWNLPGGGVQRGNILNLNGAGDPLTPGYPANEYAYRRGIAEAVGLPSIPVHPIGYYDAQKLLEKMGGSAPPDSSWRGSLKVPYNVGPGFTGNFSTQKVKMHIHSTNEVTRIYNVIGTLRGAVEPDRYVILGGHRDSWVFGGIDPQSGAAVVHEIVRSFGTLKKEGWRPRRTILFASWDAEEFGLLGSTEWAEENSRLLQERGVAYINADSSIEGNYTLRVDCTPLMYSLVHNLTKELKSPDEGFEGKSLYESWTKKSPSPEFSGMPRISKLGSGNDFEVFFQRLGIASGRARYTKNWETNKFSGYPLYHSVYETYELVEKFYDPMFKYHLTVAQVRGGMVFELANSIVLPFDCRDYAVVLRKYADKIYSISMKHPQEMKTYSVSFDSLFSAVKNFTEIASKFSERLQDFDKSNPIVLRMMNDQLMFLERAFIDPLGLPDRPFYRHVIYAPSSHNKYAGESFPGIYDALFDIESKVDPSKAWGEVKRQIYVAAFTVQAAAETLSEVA

Substance: biotin-PEG12-CTT-54
- IC50: 10 nM
